From patent US8883010B2, “Polymer composition with phytochemical and dialysis membrane formed from the polymer composition” (The University of Akron, priority 2008, dated 2014) come the findings set out here.

“Also recorded” adds a separate entry of the source.

For series [1], the system named is reactive oxygen species (ROS) in neutrophils. The experiment in a line: Modified DHR (dihydrorhodamine) assay of oxygen radical generation in PMA-stimulated whole blood. To be noted: for suppression of ROS levels (in words): pure antioxidant in DMSO, no membrane/polymer, 25-500 μg/ml. The class given is cell-based, human.
Protocol: In order to determine the effect of membranes and/or genistein on oxygen radical generation, the standard dihydrorhodamine (DHR) assay was modified as follows. The assay consisted of one positive control tube, several sample tubes and one negative control tube. The positive control tube contained 100 μl blood, 25 μl DHR, and 25 μl PMA; the total contents were made up to a total volume of 1 ml with PBS. The effect of oxygen radical generation is tested as follows, using the sample tube containing 100 μl blood, 25 μl DHR, 25 μl PMA and the appropriate sample (for example, unmodified membranes or pure genistein or genistein modified membranes). […] For the assay, two small circular samples (2×0.4 cm^2) were punched out from the cast films and placed inside the test tubes. After adding the membrane, the entire contents were incubated at 37° C. for 3 h (to simulate hemodialysis conditions) while being subjected to continuous shaking. After 3 h of incubation, the membrane samples were removed from the blood and agitated with 1 ml of PBS in order to dislodge the cells that were attached to the membrane. In the case of pure genistein (i.e., no membrane), the samples were prepared by dissolving genistein in DMSO over a wide range of concentration (25-500 μg/ml). The negative control tube contained 100 μl blood, 25 μl DHR, and the sample.
In order to normalize the data obtained from different set of experiments, the following formula was employed to express ROS level in percentage,
where the positive control represent 100% ROS and the negative control represent 0% ROS. The x, y, and z parameters represent the mean fluorescence signal obtained from the positive control, the negative control, and the samples, respectively.
Series [2] deals with peripheral blood mononuclear cells (PBMC). The series can be described thus: Cell viability (cytotoxicity) assay with 7-AAD dye and flow cytometry. The class given is cell-based. As to conditions: pure genistein, 25-500 μg/ml.
Protocol: Cell viability assays were conducted to determine the effect of unmodified membranes, pure genistein and genistein modified membranes on whole blood. A nucleic acid dye, 7-Amino-actinomycin D (7-AAD), (BD-Via-Probe™ from BD Bioscience, CA) was used as a viability probe, which is based on uptake of 7-AAD. 7-AAD is a nucleic acid dye, which is designed in such a way that it cannot enter live cells. Fresh blood mixed with the dye was used as a negative control, whereas blood incubated with the membrane and/or genistein served as the experimental samples.
To perform the assays, 100 μl of fresh blood was pipetted into separate polypropylene tubes and mixed with 2 ml of ammonium chloride lysis buffer solution (containing 8.26 g ammonium chloride, 1 g potassium bicarbonate, and 0.037 g ethylenediamine-tetraacetic acid dissolved in 1 liter deionized water). The tubes were allowed to stand at room temperature for 10 min during which most of the red blood cells were lysed. The tubes were centrifuged at room temperature for 5 min at 1,800 rpm. […] The cells were resuspended with 500 μl of PBS and the cell suspension was analyzed using a flow cytometer (EPICS® XL-MCL™, Beckman Coulter, Calif., USA) equipped with System II™ software. […] The fluorescence signal from the dead cells was measured on the FL3 red channel (650 nm) with the flow cytometer.

Consider Vitamin E, for which the “suppression of ROS levels (in words)” value in series [1] is “Suppression is greater than for Vitamin E”.

On to `O=c1c(-c2ccc(O)cc2)coc2cc(O)cc(O)c12` [genistein, 5,7-dihydroxy-3-(4-hydroxyphenyl)chromen-4-one], for which the “cytotoxicity to PBMC” value in series [2] is recorded as “non-cytotoxic”. Also, in series [1], the “suppression of ROS levels (in words)” value is reported as “dose-dependent reduction of ROS level; also recorded: suppress ROS levels significantly; also recorded: Suppression is greater than for Vitamin E”. Besides, the “reduction of the oxygen radicals” value in series [1] (pure genistein in DMSO, no membrane) was “about 50%”.
